In the supplement of paper PMC5908809:

Experiments:
[1] = system: normal NK cells expanded with K562-aAPC; test: drug sensitivity score (DSS) (DSS units); higher = more sensitive; extreme values may be limits of the assay; conditions: 72 h; IL-2 2.5 ng/mL
Experimental: (§1)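 Drug sensitivity and resistance testing on K562-aAPC-expanded normal NK cells: 5 concentrations (10-fold steps over a 10,000-fold range), 72 h at 37 °C, viability by CellTiter-Glo normalised to DMSO and benzethonium chloride controls; DSS from the fitted curve.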

NK-YS (IL-2 2.5 ng/mL) [2] = test: as above; conditions: 72 h
KHYG-1 (IL-2 2.5 ng/mL) [3] = test: as above; conditions: 72 h
[4] = system: normal primary NK cells, pool 1 (3 donors), resting (IL-2 0 ng/mL); test: as above; conditions: 72 h
[5] = system: normal primary NK cells, pool 1 (3 donors) (IL-2 2.5 ng/mL); test: as above; conditions: 72 h
YT (IL-2 2.5 ng/mL) [6] = test: as above; conditions: 72 h
DERL-7 (IL-2 2.5 ng/mL) [7] = test: as above; conditions: 72 h
KAI3 (IL-2 2.5 ng/mL) [8] = test: as above; conditions: 72 h
NKL (IL-2 2.5 ng/mL) [9] = test: as above; conditions: 72 h
SNK-6 (IL-2 2.5 ng/mL) [10] = test: as above; conditions: 72 h
IMC-1 (IL-2 20 ng/mL) [11] = test: as above; conditions: 72 h
[12] = system: normal primary NK cells, pool 3 (3 donors) (IL-2 2.5 ng/mL); test: as above; conditions: 72 h
NK-92 (IL-2 2.5 ng/mL) [13] = test: as above; conditions: 72 h
[14] = system: normal primary NK cells, pool 2 (3 donors) (IL-2 2.5 ng/mL); test: as above; conditions: 72 h
NK-YS (IL-2 2.5 ng/mL) [15] = test: percent inhibition of viability; higher = more inhibition; conditions: 72 h
KHYG-1 (IL-2 2.5 ng/mL) [16] = test: as above; conditions: 72 h
[17] = system: normal primary NK cells, pool 1 (3 donors), resting (IL-2 0 ng/mL); test: as above; conditions: 72 h
[18] = system: normal primary NK cells, pool 1 (3 donors) (IL-2 2.5 ng/mL); test: as above; conditions: 72 h
YT (IL-2 2.5 ng/mL) [19] = test: as above; conditions: 72 h
DERL-7 (IL-2 2.5 ng/mL) [20] = test: as above; conditions: 72 h
KAI3 (IL-2 2.5 ng/mL) [21] = test: as above; conditions: 72 h
NKL (IL-2 2.5 ng/mL) [22] = test: as above; conditions: 72 h
SNK-6 (IL-2 2.5 ng/mL) [23] = test: as above; conditions: 72 h
IMC-1 (IL-2 20 ng/mL) [24] = test: as above; conditions: 72 h
[25] = system: normal primary NK cells, pool 3 (3 donors) (IL-2 2.5 ng/mL); test: as above; conditions: 72 h
NK-92 (IL-2 2.5 ng/mL) [26] = test: as above; conditions: 72 h
[27] = system: normal primary NK cells, pool 2 (3 donors) (IL-2 2.5 ng/mL); test: as above; conditions: 72 h
[28] = system: normal NK cells expanded with K562-aAPC; test: as above; conditions: 72 h, IL-2 2.5 ng/mL
Experimental: as §1

COc1cc(OC2CCN(C)CC2)ccc1Nc1ncc2c(n1)n(C1CCCC1)c(=O)n2C [AZ 3146] (max concentration tested 10000 nM)
Conditions | drug sensitivity score
DERL-7 (IL-2 2.5 ng/mL) [7] | 7.08
IMC-1 (IL-2 20 ng/mL) [11] | 7.02
KAI3 (IL-2 2.5 ng/mL) [8] | 9.06
KHYG-1 (IL-2 2.5 ng/mL) [3] | 7.83
NK-92 (IL-2 2.5 ng/mL) [13] | 2.49
NK-YS (IL-2 2.5 ng/mL) [2] | 8.24
NKL (IL-2 2.5 ng/mL) [9] | 7.26
SNK-6 (IL-2 2.5 ng/mL) [10] | 7.53
YT (IL-2 2.5 ng/mL) [6] | 7.34
[1] | 5.96
[4] | 6.04
[5] | 4.98
[12] | 5.18
[14] | 5.18

percent inhibition of viability [%]
Conditions | 1 nM | 10 nM | 100 nM | 1000 nM | 10000 nM
DERL-7 (IL-2 2.5 ng/mL) [20] | -4.12 | 4.05 | 2.89 | 9.9 | 98.6
IMC-1 (IL-2 20 ng/mL) [24] | -1.3 | 2.72 | 8.86 | 9.14 | 100
KAI3 (IL-2 2.5 ng/mL) [21] | -6.95 | -0.01 | 1.16 | 23.6 | 97.9
KHYG-1 (IL-2 2.5 ng/mL) [16] | 3.47 | 1.13 | 9.55 | 13.1 | 104
NK-92 (IL-2 2.5 ng/mL) [26] | 0.39 | -0.68 | 10.8 | -7.78 | 55.7
NK-YS (IL-2 2.5 ng/mL) [15] | 1 | 1.98 | 6.37 | 19 | 93.4
NKL (IL-2 2.5 ng/mL) [22] | -14.9 | -7.34 | -5.85 | 12.7 | 92.9
SNK-6 (IL-2 2.5 ng/mL) [23] | 16.5 | 16.6 | 28.5 | 15.2 | 90
YT (IL-2 2.5 ng/mL) [19] | 2.24 | 1.06 | 7.18 | 13.3 | 92.1
[17] | 8.87 | -6.36 | 1.82 | 9.09 | 81.8
[18] | -2.73 | -14.2 | -10.5 | 0.05 | 89.1
[25] | -14.2 | 1.88 | 2.52 | 5.03 | 80
[27] | -14.1 | -0.67 | 12.1 | 6.73 | 74.2
[28] | -2.2 | 0.53 | -2.22 | 4.68 | 95.5

CNC(=O)c1cccc(-c2ccc3c(N4CCOC[C@@H]4C)nc(N4CCOC[C@@H]4C)nc3n2)c1 [AZD2014] (max concentration tested 10000 nM)
Conditions | drug sensitivity score
DERL-7 (IL-2 2.5 ng/mL) [7] | 18.6
IMC-1 (IL-2 20 ng/mL) [11] | 0
KAI3 (IL-2 2.5 ng/mL) [8] | 21
KHYG-1 (IL-2 2.5 ng/mL) [3] | 11.2
NK-92 (IL-2 2.5 ng/mL) [13] | 14.5
NK-YS (IL-2 2.5 ng/mL) [2] | 14.4
NKL (IL-2 2.5 ng/mL) [9] | 20.4
SNK-6 (IL-2 2.5 ng/mL) [10] | 12.5
YT (IL-2 2.5 ng/mL) [6] | 13.5
[1] | 10.8
[4] | 9.03
[5] | 8.12
[12] | 5.08
[14] | 5.3

percent inhibition of viability [%]
Conditions | 1 nM | 10 nM | 100 nM | 1000 nM | 10000 nM
DERL-7 (IL-2 2.5 ng/mL) [20] | -2.59 | 6.55 | 37.5 | 74.8 | 87.2
IMC-1 (IL-2 20 ng/mL) [24] | -8.07 | -10.1 | -19.9 | -44.5 | 8.41
KAI3 (IL-2 2.5 ng/mL) [21] | 19.5 | 24.3 | 46.2 | 65.3 | 73.2
KHYG-1 (IL-2 2.5 ng/mL) [16] | 8.26 | 7.2 | 12.9 | 48.3 | 87.9
NK-92 (IL-2 2.5 ng/mL) [26] | 4.44 | -1.39 | 29.1 | 57.6 | 86.6
NK-YS (IL-2 2.5 ng/mL) [15] | 7.61 | 7.66 | 23 | 61.5 | 81.5
NKL (IL-2 2.5 ng/mL) [22] | 8.6 | 17.6 | 50.9 | 66.7 | 73
SNK-6 (IL-2 2.5 ng/mL) [23] | 5.51 | 16.6 | 22.9 | 45 | 60.5
YT (IL-2 2.5 ng/mL) [19] | 10.9 | 6.65 | 18.3 | 60.6 | 78.2
[17] | -7.02 | 8.25 | 24.4 | 20.1 | 45.9
[18] | 5.65 | 6.16 | 19.9 | 34.6 | 35.5
[25] | 0.74 | 5.96 | 9.04 | 27.7 | 27.3
[27] | -6.11 | 7.01 | 7.49 | 28.2 | 29.1
[28] | 1.08 | 8.53 | 26.5 | 39.1 | 53.6
